Experimental data taken from US10392348B2, “2-oxo-3,4-dihydroquinoline compounds as plant growth regulators” (Syngenta Participations AG, priority 2015, dated 2019).
Read-outs that look alike come from different tables or passages of the source.

Experiments:
[1] = test system: soybean plants (variety S20-G7); assay: Reduced plant water use in soybean (foliar spray, repeated weighing of pots); format: in vivo; details: Glycine max, foliar, Table B1, sprayed at 500 μM, vs negative control
In short: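 Compounds in blank EC formulation diluted in water with EXTRAVON 1 g/20 L, foliar-sprayed on 12-day-old soybean in growth chambers. Water use from repeated pot weighing at a.m./p.m. periods over 0-2 DAA, summed to cumulative 0-2.5 DAA; ANCOVA with pre-application baseline covariate, relative to blank-formulation control.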

[2] = test system: corn plants (variety NK OCTET); assay: Reduced plant water use in corn (foliar spray, repeated weighing of pots); format: in vivo; details: Zea mays, corn plants sprayed at 500 μM, average of 6 pots
In short: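 Twelve-day-old corn plants sprayed on foliage with EC formulations diluted in water with 0.4% rape seed methyl ester. Day-time water use tracked by repeated pot weighing through 2.5 DAA, summed cumulatively; analysed by covariance with water use 1 day before application as baseline.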

[3] = 0 h, 0 DAA a.m. (10:30-12:50), read-out: % WU 0 DAA AM
[4] = 24 h, 1 DAA a.m. (7:30-12:50), read-out: % WU 1DAA AM
[5] = 24 h, 1 DAA p.m. (14:00-19:50), read-out: % WU 1DAA PM
[6] = 48 h, 2 DAA a.m. (07:30-12:50), read-out: % WU 2 DAA AM
[7] = 48 h, 2 DAA p.m. (14:00-19:50), read-out: % WU 2 DAA PM
[8] = 60 h, cumulative total WU (0-2.5 DAA), read-out: % WU Total 0 to 2.5 DAA
[9] = 0 h, water use during day time vs negative control, 0 DAA a.m. (10:30-12:50), read-out: % WU 0 DAA AM
[10] = 0 h, water use during day time vs negative control, 0 DAA p.m. (14:00-19:50), read-out: % WU 0DAA PM
[11] = 24 h, water use during day time vs negative control, 1 DAA a.m. (07:30-12:50), read-out: % WU 1DAA AM
[12] = 24 h, water use during day time vs negative control, 1 DAA p.m. (14:00-19:50), read-out: % WU 1DAA PM
[13] = 48 h, water use during day time vs negative control, 2 DAA a.m. (07:30-12:50), read-out: % WU 2 DAA AM
[14] = 48 h, water use during day time vs negative control, 2 DAA p.m. (14:00-19:50), read-out: % WU 2 DAA PM
[15] = 60 h, cumulative total water use 0-2.5 DAA (sum of the time points) vs negative control, read-out: % WU Total 0 to 2.5 DAA

Structure (SMILES)	melting point	change in vivo at 500 µM [1, 3]	change in vivo at 500 µM [1, 4]	change in vivo at 500 µM [1, 5]	change in vivo at 500 µM [1, 6]	change in vivo at 500 µM [1, 7]	change in vivo at 500 µM [1, 8]	change in vivo at 500 µM [2, 9]	change in vivo at 500 µM [2, 10]	change in vivo at 500 µM [2, 11]	change in vivo at 500 µM [2, 12]	change in vivo at 500 µM [2, 13]	change in vivo at 500 µM [2, 14]	change in vivo at 500 µM [2, 15]
CCCN1C(=O)CCc2cc(CNS(=O)(=O)c3cn(C)cn3)ccc21 [Compound 3.063, 1-methyl-N-[(2-oxo-1-propyl-3,4-dihydroquinolin-6-yl)methyl]imidazole-4-sulfonamide]	168 to 171 °C	-9.3%	-5.1%	-3.9%	-6.6%	-5%	-5.5%	-8.4%	-3.1%	-3%	-1%	-1.5%	2%	-1.4%
CCCN1C(=O)CCc2cc(CNS(=O)(=O)CCC(F)(F)F)ccc21 [Compound 3.067, 3,3,3-trifluoro-N-[(2-oxo-1-propyl-3,4-dihydroquinolin-6-yl)methyl]propane-1-sulfonamide]	132 to 135 °C	-28.4%	-19.3%	-17.2%	-13.3%	-9.5%	-17.2%	-14.7%	-10.7%	-12.1%	-11.5%	-9.9%	-10.1%	-11.1%
CCCN1C(=O)CCc2cc(CNS(=O)(=O)c3ccsc3)ccc21 [Compound 3.068, N-[(2-oxo-1-propyl-3,4-dihydroquinolin-6-yl)methyl]thiophene-3-sulfonamide]	150 to 154 °C	-46%	-39.3%	-31.6%	-22.3%	-15.3%	-31.6%	-25.5%	-24.9%	-15.8%	-13.1%	-8.9%	-9.4%	-14.8%
CCCN1C(=O)CCc2cc(CNS(=O)(=O)c3ccc4ccccc4c3)ccc21 [Compound 3.075, N-[(2-oxo-1-propyl-3,4-dihydroquinolin-6-yl)methyl]naphthalene-2-sulfonamide]	169 to 173 °C	-10.8%	-2.1%	-0.6%	-2.1%	-2%	-3.3%	-9.8%	-7.9%	-8.2%	-6.4%	-4.9%	-3.3%	-6.3%

Second part, led by results:

melting point	Structure (SMILES)	change in vivo at 500 µM [1, 3]	change in vivo at 500 µM [1, 4]	change in vivo at 500 µM [1, 5]	change in vivo at 500 µM [1, 6]	change in vivo at 500 µM [1, 7]	change in vivo at 500 µM [1, 8]	change in vivo at 500 µM [2, 9]	change in vivo at 500 µM [2, 10]	change in vivo at 500 µM [2, 11]	change in vivo at 500 µM [2, 12]	change in vivo at 500 µM [2, 13]	change in vivo at 500 µM [2, 14]	change in vivo at 500 µM [2, 15]
151 to 154 °C	CCCN1C(=O)CCc2cc(CNS(=O)(=O)c3ccc(C)s3)ccc21 [Compound 3.061, 5-methyl-N-[(2-oxo-1-propyl-3,4-dihydroquinolin-6-yl)methyl]thiophene-2-sulfonamide]	-47.8%	1%	3.4%	1.6%	1.2%	-13.7%	-20.8%	-19.1%	-9.5%	-7.5%	-2.8%	-3.9%	-9%
131 to 134 °C	CCCN1C(=O)CCc2cc(CNS(=O)(=O)c3cc(Cl)sc3Cl)ccc21 [Compound 3.064, 2,5-dichloro-N-[(2-oxo-1-propyl-3,4-dihydroquinolin-6-yl)methyl]thiophene-3-sulfonamide]	-34.7%	-23.3%	-21.3%	-17.2%	-13.5%	-22.2%	-12.6%	-14.2%	-11.6%	-9.9%	-5.6%	-4.7%	-9.3%
